Reference: patent publication EP3860599B1, “(+)-ALPHA-DIHYDROTETRABENAZINE DOSAGE REGIMEN FOR TREATING MOVEMENT DISORDERS” (Adeptio Pharmaceuticals Limited, priority 2018, dated 2020)
Where two headings read alike, the source gives them in different places.

Legend:
Assay type in all cases: in vivo
VMAT2 = biological target: T1, VMAT2 (Homo sapiens, UniProt Q05940); experiment: % VMAT2 blocking by PET scan after oral dosing of human volunteers, Example 1A
T1 construct: from tissue
From the text: Complete blocking of VMAT2 is considered undesirable as this can lead to unwanted side effects, such as Parkinsonism. […] The levels of VMAT2 blocking can be determined by competitive binding studies using Positron Emission Tomography (PET). By co-administering a radioactive ligand with the compound of interest at various concentrations, the proportion of binding sites occupied can be determined (see for example, Matthews et al., "Positron emission tomography molecular imaging for drug development", Br. J. Clin. Pharmacol., 73:2, 175-186).
Blood samples were taken at 30, 60, 120 and 180 minutes after drug administration. At 60 minutes after drug administration, PET scans were initiated and these were stopped at 120 minutes after drug administration.
The experiment was carried out at dosages of 7.5 mg, 15 mg and 22.5 mg.

[1] = Plasma concentrations up to 7 hours after oral dosing of human volunteers, Example 1B; settings: 7.5 mg
Method: Volunteers 1 and 2 were the same as volunteers 1 and 2 in Example 1A described above. […] In addition, in all volunteers PET scans were initiated at 6 hours after drug administration and these were stopped at 7 hours after drug administration. […]

[2] = system: non-amphetamine induced rats; experiment: Open field locomotor activity test in rats without amphetamine induction (Example 2, Study 3); settings: 2.5 mg/kg or 5 mg/kg
Method: (§1) All animal experiments were carried out according to the National Institute of Health (NIH) guidelines for the care and use of laboratory animals, and approved by the National Animal Experiment Board, Finland. Male CD (Charles River Laboratories, Germany) at weight range of 200-250 g (165-200 g upon arrival) were used for the experiments. Animals were housed at a standard temperature (22 ± 1°C) and in a light-controlled environment (lights on from 7 am to 8 pm) with ad libitum access to food and water.
(§2) Locomotor activity of the rats was tested in open field arena. The open field test was performed during the rat light cycle and under a normal lighting evenly distributed to the test chambers. The paths of the rats were recorded by activity monitor (Med. Associates Inc.).
(§3) Dosing the vehicle, vehicle-amphetamine, (+)-α-DHTBZ or risperidone was done prior to LMA test. The rats were placed in the centre of the arena, and the path was recorded for 60 minutes.
Animals were grouped as follows: • Group 1: 10 rats treated with Vehicle • Group 2: 10 rats treated with (+)-α-DHTBZ 2.5 mg/kg • Group 3: 10 rats treated with (+)-α-DHTBZ 5 mg/kg • Group 4: 10 rats treated with risperidone 1 mg/kg

amphetamine-induced rats = experiment: Open field locomotor activity test in amphetamine-induced rats (Example 2, Studies 1, 2 and 4)
Method: as §1, §2, §3
Animals were grouped as follows: • Group 1: 10 rats treated with Vehicle (t= 0 min) and Vehicle (t= 30 min) • Group 2: 10 rats treated with Vehicle (t= 0 min) and Amphetamine (t= 30 min) • Group 3: 10 rats treated with (+)-α-DHTBZ 0.5 mg/kg (t=0 min) and Amphetamine (t= 30 min) • Group 4: 10 rats treated with (+)-α-DHTBZ 1 mg/kg (t=0 min) and Amphetamine (t= 30 min) • Group 5: 10 rats treated with (+)-α-DHTBZ 1.5 mg/kg (t=0 min) and Amphetamine (t= 30 min) • Group 6: 10 rats treated with (+)-α-DHTBZ 2 mg/kg (t=0 min) and Amphetamine (t= 30 min) • Group 7: 10 rats treated with risperidone 1 mg/kg (t=0 min) and Amphetamine (t= 30 min)
Animals were grouped as follows: • Group 1: 10 rats treated with Vehicle (t= 0 min) and Vehicle (t= 30 min) • Group 2: 10 rats treated with Vehicle (t= 0 min) and Amphetamine (t= 30 min) • Group 3: 10 rats treated with (+)-α-DHTBZ 0.1 mg/kg (t=0 min) and Amphetamine (t=30 min) • Group 4: 10 rats treated with (+)-α-DHTBZ 0.25 mg/kg (t=0 min) and Amphetamine (t=30 min) • Group 5: 10 rats treated with risperidone 1 mg/kg (t=0 min) and Amphetamine (t= 30 min)
Animals were grouped as follows: • Group 1: 10 rats treated with Vehicle (t= 0 min) and Vehicle (t= 30 min) • Group 2: 10 rats treated with Vehicle (t= 0 min) and Amphetamine (t= 30 min) • Group 3: 10 rats treated with (+)-α-DHTBZ 1 mg/kg (t=0 min) and Amphetamine (t=30 min) • Group 4: 10 rats treated with (+)-α-DHTBZ 1.5 mg/kg (t=0 min) and Amphetamine (t=30 min) • Group 5: 10 rats treated with Valbenazine 1 mg/kg (t=0 min) and Amphetamine (t=30 min) • Group 6: 10 rats treated with Valbenazine 1.5 mg/kg (t=0 min) and Amphetamine (t=30 min) • Group 7: 10 rats treated with risperidone 1 mg/kg (t=0 min) and Amphetamine (t= 30 min)

[3] = po, Example 1B subject 1 (112 kg), 7.5 mg oral
[4] = po, Example 1B subject 2 (76 kg), 7.5 mg oral
[5] = po, Example 1B subject 3 (76 kg), 7.5 mg oral
[6] = po, Example 1B subject 4 (95 kg), 7.5 mg oral
[7] = po, Example 1B subject 5 (99 kg), 7.5 mg oral
[8] = po, Example 1B subject 6 (107 kg), 7.5 mg oral
[9] = Study 1 conclusions, all the tested doses (0.5, 1, 1.5 and 2 mg/kg)

T1 sequence (Q05940 whole entry): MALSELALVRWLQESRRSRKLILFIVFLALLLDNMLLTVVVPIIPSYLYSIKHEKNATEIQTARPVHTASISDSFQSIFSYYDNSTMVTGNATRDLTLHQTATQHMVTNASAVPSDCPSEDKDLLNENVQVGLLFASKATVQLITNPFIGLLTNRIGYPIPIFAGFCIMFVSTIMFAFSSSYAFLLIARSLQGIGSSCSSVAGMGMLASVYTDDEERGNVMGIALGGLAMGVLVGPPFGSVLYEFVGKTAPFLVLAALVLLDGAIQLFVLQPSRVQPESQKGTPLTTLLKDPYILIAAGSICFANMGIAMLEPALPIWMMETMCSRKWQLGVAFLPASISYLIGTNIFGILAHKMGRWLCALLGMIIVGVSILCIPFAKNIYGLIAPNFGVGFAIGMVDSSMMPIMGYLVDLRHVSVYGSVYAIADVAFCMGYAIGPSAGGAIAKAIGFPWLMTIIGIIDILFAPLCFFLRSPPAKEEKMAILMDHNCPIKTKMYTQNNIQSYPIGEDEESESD

COc1cc2c(cc1OC)[C@H]1C[C@@H](O)[C@H](CC(C)C)CN1CC2 [(+)-α-dihydrotetrabenazine, (R,R,R)-3-isobutyl-9,10-dimethyloxy-1,3,4,5,7,11b-hexahydro-2H-pyrido[2,1-a]isoquinolin-2-ol]
% VMAT2 blocking (VMAT2; even in heavier individuals, doses as low as 7.5 mg): at least 50% | % VMAT2 blocking (VMAT2; subject 1 (112 kg), 7.5 mg oral, PET scan 60-120 minutes after administration): 54% | % VMAT2 blocking (VMAT2; subject 1 (112 kg), 15 mg oral, PET scan 60-120 minutes after administration): 73% | % VMAT2 blocking (VMAT2; subject 1 (112 kg), 22.5 mg oral, PET scan 60-120 minutes after administration): 75% | % VMAT2 blocking (VMAT2; subject 2 (76 kg), 7.5 mg oral, PET scan 60-120 minutes after administration): 73% | % VMAT2 blocking (VMAT2; subject 2 (76 kg), 15 mg oral, PET scan 60-120 minutes after administration): 83% | % VMAT2 blocking (VMAT2; subject 2 (76 kg), 22.5 mg oral, PET scan 60-120 minutes after administration): 82% | % VMAT2 blocking (VMAT2; subject 3 (129 kg), 7.5 mg oral, PET scan 60-120 minutes after administration): 62% | % VMAT2 blocking (VMAT2; subject 3 (129 kg), 15 mg oral, PET scan 60-120 minutes after administration): 69% | % VMAT2 blocking (VMAT2; subject 3 (129 kg), 22.5 mg oral, PET scan 60-120 minutes after administration): 74% | % VMAT2 blocking (VMAT2; subject 4 (59 kg), 7.5 mg oral, PET scan 60-120 minutes after administration): 84% | % VMAT2 blocking (VMAT2; subject 4 (59 kg), 15 mg oral, PET scan 60-120 minutes after administration): 89% | % VMAT2 blocking (VMAT2; subject 5 (91 kg), 7.5 mg oral, PET scan 60-120 minutes after administration): 73% | % VMAT2 blocking (VMAT2; subject 5 (91 kg), 15 mg oral, PET scan 60-120 minutes after administration): 79% | % VMAT2 blocking (VMAT2; subject 5 (91 kg), 22.5 mg oral, PET scan 60-120 minutes after administration): 82% | % VMAT2 blocking (VMAT2; subject 6 (68 kg), 7.5 mg oral, PET scan 60-120 minutes after administration): 60% | % VMAT2 blocking (VMAT2; subject 6 (68 kg), 15 mg oral, PET scan 60-120 minutes after administration): 76% | % VMAT2 blocking (VMAT2; subject 6 (68 kg), 22.5 mg oral, PET scan 60-120 minutes after administration): 62% | concentration at 6 h ([1]; oral, after 6 hours following administration of 7.5mg, read-out: blood plasma concentrations): < 15 ng/mL | concentration at 2 h [1, 3]: 8.7 ng/mL | concentration at 4 h [1, 3]: 6.01 ng/mL | concentration at 6 h ([1]; po, Example 1B subject 1 (112 kg), 7.5 mg oral, 6 h, read-out: plasma concentrations): 4.54 ng/mL | concentration at 7 h [1, 3]: 3.65 ng/mL | concentration at 2 h [1, 4]: 11.7 ng/mL | concentration at 4 h [1, 4]: 17.5 ng/mL | concentration at 6 h ([1]; po, Example 1B subject 2 (76 kg), 7.5 mg oral, 6 h, read-out: plasma concentrations): 13.4 ng/mL | concentration at 7 h [1, 4]: 11.6 ng/mL | concentration at 2 h [1, 5]: 12.8 ng/mL | concentration at 4 h [1, 5]: 7.92 ng/mL | concentration at 6 h ([1]; po, Example 1B subject 3 (76 kg), 7.5 mg oral, 6 h, read-out: plasma concentrations): 5.57 ng/mL | concentration at 7 h [1, 5]: 4.84 ng/mL | concentration at 1 h [1, 6]: 21.4 ng/mL | concentration at 2 h [1, 6]: 13.9 ng/mL | concentration at 3 h [1, 6]: 10.6 ng/mL | concentration at 4 h [1, 6]: 7.81 ng/mL | concentration at 5 h [1, 6]: 6.59 ng/mL | concentration at 6 h ([1]; po, Example 1B subject 4 (95 kg), 7.5 mg oral, 6 h, read-out: plasma concentrations): 4.92 ng/mL | concentration at 7 h [1, 6]: 4.91 ng/mL | concentration at 1 h [1, 7]: 5.64 ng/mL | concentration at 2 h [1, 7]: 7.59 ng/mL | concentration at 3 h [1, 7]: 5.84 ng/mL | concentration at 4 h [1, 7]: 4.58 ng/mL | concentration at 5 h [1, 7]: 3.66 ng/mL | concentration at 6 h ([1]; po, Example 1B subject 5 (99 kg), 7.5 mg oral, 6 h, read-out: plasma concentrations): 3.35 ng/mL | concentration at 7 h [1, 7]: 2.47 ng/mL | concentration at 1 h [1, 8]: 4.86 ng/mL | concentration at 2 h [1, 8]: 6.3 ng/mL | concentration at 3 h [1, 8]: 6.69 ng/mL | concentration at 4 h [1, 8]: 5.61 ng/mL | concentration at 5 h [1, 8]: 5.19 ng/mL | concentration at 6 h ([1]; po, Example 1B subject 6 (107 kg), 7.5 mg oral, 6 h, read-out: plasma concentrations): 4.44 ng/mL | concentration at 7 h [1, 8]: 3.36 ng/mL | stereotypic behaviour versus rats treated with the vehicle [2]: comparable | total movement versus rats treated with the vehicle [2]: comparable | locomotor activity when compared to the vehicle-amphetamine group (amphetamine-induced rats; [9]): lower locomotor activity | stereotypic behaviour when compared to the vehicle-amphetamine group (amphetamine-induced rats; [9]): reduced stereotypic behaviour | locomotor activity when compared to the vehicle-amphetamine group (amphetamine-induced rats; Study 2 conclusions, 0.25 mg/kg): lower locomotor activity | stereotypic behaviour when compared to the vehicle-amphetamine group (amphetamine-induced rats; Study 2 conclusions, both the tested doses (0.1 mg/kg and 0.25 mg/kg)): reduced stereotypic behaviour | locomotor activity when compared to the vehicle-amphetamine group and the corresponding dose of Valbenazine (amphetamine-induced rats; Study 4 conclusions, 1 mg/kg and 1.5 mg/kg): lower locomotor activity | stereotypic behaviour when compared to the vehicle-amphetamine group and the corresponding dose of Valbenazine (amphetamine-induced rats; Study 4 conclusions, both the tested doses (1 mg/kg and 1.5 mg/kg)): reduced stereotypic behaviour
